Measurements taken from patent US11999716B2, “WDR5 inhibitors and modulators” (priority 2018, dated 2024).
Where two headings read alike, the source gives them in different places.

How the values were obtained:
[1] = target: WDR5 (Homo sapiens, UniProt P61964); test: biochemical; assay type: binding
[2] = tested on: MV4:11 human cancer cell lines; test: Cellular viability / anti-proliferative activity, CellTiter-Glo, 5 day protocol; assay type: cell-based; settings: read-out: GI50 on cellular proliferation of MV4:11 human cancer cell lines
Method in brief: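 Compounds were tested over 22 two-fold dilutions starting at 30 μM in 0.3% DMSO, with 200 cells per well (7200 cells/mL). Viability was measured by CellTiter-Glo luminescence at day 5.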

[3] = […], 10mer-Thr-FAM probe 150 nM, Tb-anti-HIS 1 nM, 60 min, room temperature, read-out: Ki for Inhibition of WDR5 by TR-FRET assay
[4] = Homo sapiens, MV4-11, 120 h, MV4:11 cells, 5 day incubation, CellTiter-Glo, mean of minimum two replicates

COc1cc(CN2CCc3c(cc(Cn4ccn(C)c4=N)cc3-c3ccc(F)cc3C)C2=O)cc(OC)c1 [Example 29, 2-(3,5-Dimethoxybenzyl)-5-(4-fluoro-2-methylphenyl)-7-((2-imino-3-methyl-2,3-dihydro-1H-imidazol-1-yl)methyl)-3,4-dihydroisoquinolin-1(2H)-one]
Ki [1, 3]: < 0.05 nM
GI50 ([2]; Homo sapiens, MV4-11, 120 h): 63 nM

CCn1cc(-c2cc(Cn3ccsc3=N)cc3c2CCN(Cc2cc(C)nn2C)C3=O)c(C(F)(F)F)n1 [Example 106, 2-((1,3-Dimethyl-1H-pyrazol-5-yl)methyl)-5-(1-ethyl-3-(trifluoromethyl)-1H-pyrazol-4-yl)-7-((2-iminothiazol-3(2H)-yl)methyl)-3,4-dihydroisoquinolin-1(2H)-one]
Ki ([1]; Ki for Inhibition of WDR5 by TR-FRET assay): < 0.05 nM
GI50 ([2]; Homo sapiens, MV4-11, 120 h): 182 nM

COc1cc(CN2CCc3c(cc(CN4CCCC4=N)cc3-c3cccnc3C(F)(F)F)C2=O)cc(OC)c1 [Example 107, 2-(3,5-Dimethoxybenzyl)-7-((2-iminopyrrolidin-1-yl)methyl)-5-(2-(trifluoromethyl)pyridin-3-yl)-3,4-dihydroisoquinolin-1(2H)-one]
Ki [1, 3]: 0.11 nM

COc1ccnc(CN2CCc3c(cc(Cn4cc5n(c4=N)CCC5)cc3-c3cn(C)nc3C(F)(F)F)C2=O)c1 [Example 62, 7-((3-Imino-6,7-dihydro-3H-pyrrolo[1,2-c]imidazol-2(51/)-yl)methyl)-2-((4-methoxypyridin-2-yl)methyl)-5-(1-methyl-3-(trifluoromethyl)-1H-pyrazol-4-yl)-3,4-dihydroisoquinolin-1(2H)-one]
GI50 [2, 4]: 572 nM

COc1cc(CN2CCc3c(cc(Cn4ccnc4C)cc3-c3ccc(F)cc3C)C2=O)cc(OC)c1 [Example 6, 2-(3,5-Dimethoxybenzyl)-5-(4-fluoro-2-methylphenyl)-7-((2-methyl-1H-imidazol-1-yl)methyl)-3,4-dihydroisoquinolin-1(2H)-one]
GI50 [2, 4]: 301 nM

CCn1cc(-c2cc(CN3Cc4ccccc4C3=N)cc3c2CCN(Cc2cc(OC)ccn2)C3=O)c(C(F)(F)F)n1 [Example 115, 5-(1-Ethyl-3-(trifluoromethyl)-1H-pyrazol-4-yl)-7-((1-iminoisoindolin-2-yl)methyl)-2-((4-methoxypyridin-2-yl)methyl)-3,4-dihydroisoquinolin-1(2H)-one]
GI50 [2, 4]: > 938 nM

COc1cc(CN2CCc3c(cc(Cn4ccn(C)c4=N)cc3-c3cc(C)nc(C)c3)C2=O)cc(OC)c1 [Example 154, 2-(3,5-Dimethoxybenzyl)-5-(2,6-dimethylpyridin-4-yl)-7-((2-imino-3-methyl-2,3-dihydro-1H-imidazol-1-yl)methyl)-3,4-dihydroisoquinolin-1(2H)-one]
GI50 [2, 4]: 559 nM

COc1ccnc(CN2CCc3c(cc(CNC(=N)C4CC4)cc3-c3cn(C)nc3C)C2=O)c1 [Example 119, N-((5-(1,3-Dimethyl-1H-pyrazol-4-yl)-2-((4-methoxypyridin-2-yl)methyl)-1-oxo-1,2,3,4-tetrahydroisoquinolin-7-yl)methyl)cyclopropanecarboximidamide]
GI50 [2, 4]: > 938 nM

COc1ccnc(CN2CCc3c(cc(CN4CCN(C)C4=N)cc3-c3cn(C)nc3C)C2=O)c1 [Example 47, 5-(1,3-Dimethyl-1H-pyrazol-4-yl)-7-((2-imino-3-methylimidazolidin-1-yl)methyl)-2-((4-methoxypyridin-2-yl)methyl)-3,4-dihydroisoquinolin-1(2H)-one]
GI50 [2, 4]: 165 nM

COc1ccnc([C@H](C2CC2)N2CCc3c(cc(Cn4ccnc4C)cc3-c3cn(C)nc3C)C2=O)c1 [Example 203, (S)-2-(Cyclopropyl(4-methoxypyridin-2-yl)methyl)-5-(1,3-dimethyl-1H-pyrazol-4-yl)-7-((2-methyl-1H-imidazol-1-yl)methyl)-3,4-dihydroisoquinolin-1(2H)-one]
GI50 [2, 4]: 52 nM

Cn1cc(-c2cc(Cn3ccn(C)c3=N)cc3c2CCN(Cc2cc(C4CC4)nn2C)C3=O)c(C(F)(F)F)n1 [Example 147, 2-((3-Cyclopropyl-1-methyl-1H-pyrazol-5-yl)methyl)-7-((2-imino-3-methyl-2,3-dihydro-1H-imidazol-1-yl)methyl)-5-(1-methyl-3-(trifluoromethyl)-1H-pyrazol-4-yl)-3,4-dihydroisoquinolin-1(2H)-one]
GI50 [2, 4]: 73 nM
GI50 ([2]; MV4:11 cells, 5 day incubation, CellTiter-Glo, mean of minimum two replicates): 81 nM

COc1ccnc(CN2CCc3c(cc(Cn4ccsc4=N)cc3-c3cn(C)nc3C(F)(F)F)C2=O)c1 [Example 101, 7-((2-Iminothiazol-3(2H)-yl)methyl)-2-((4-methoxypyridin-2-yl)methyl)-5-(1-methyl-3-(trifluoromethyl)-1H-pyrazol-4-yl)-3,4-dihydroisoquinolin-1(2H)-one]
GI50 [2, 4]: < 50 nM

CCn1cc(-c2cc(Cn3cnc(C)c3)cc3c2CCN([C@H](c2cc(OC)ccn2)C2CC2)C3=O)c(C(F)(F)F)n1 [Example 244, (S)-2-(cyclopropyl(4-methoxypyridin-2-yl)methyl)-5-(1-ethyl-3-(trifluoromethyl)-1H-pyrazol-4-yl)-7-((4-methyl-1H-imidazol-1-yl)methyl)-3,4-dihydroisoquinolin-1(2H)-one]
GI50 [2, 4]: 119 nM

CCn1cc(CN2CCc3c(cc(Cn4ccoc4=N)cc3-c3cn(CC)nc3C(F)(F)F)C2=O)nn1 [Example 96, 2-((1-Ethyl-1H-1,2,3-triazol-4-yl)methyl)-5-(1-ethyl-3-(trifluoromethyl)-1H-pyrazol-4-yl)-7-((2-iminooxazol-3(2H)-yl)methyl)-3,4-dihydroisoquinolin-1(2H)-one]
GI50 [2, 4]: < 50 nM

COc1ccnc([C@H](C)N2CCc3c(cc(Cn4ccnc4C)cc3-c3c[nH]nc3C)C2=O)c1 [Example 238, (S)-2-(1-(4-methoxypyridin-2-yl)ethyl)-7-((2-methyl-1H-imidazol-1-yl)methyl)-5-(3-methyl-1H-pyrazol-4-yl)-3,4-dihydroisoquinolin-1(2H)-one]
GI50 [2, 4]: 227 nM

COc1cc(CN2CCc3c(cc(Cn4ccn(C)c4=N)cc3-c3ncc(F)cc3C)C2=O)cc(OC)c1 [Example 59, 2-(3,5-Dimethoxybenzyl)-5-(5-fluoro-3-methylpyridin-2-yl)-7-((2-imino-3-methyl-2,3-dihydro-1H-imidazol-1-yl)methyl)-3,4-dihydroisoquinolin-1(2H)-one]
GI50 [2, 4]: 274 nM

CCn1cc(-c2cc(Cn3cnn(C)c3=N)cc3c2CCN([C@@H](C)c2cc(OC)ccn2)C3=O)c(C(F)(F)F)n1 [Example 152, (S)-5-(1-ethyl-3-(trifluoromethyl)-1H-pyrazol-4-yl)-7-((5-imino-1-methyl-1,5-dihydro-4H-1,2,4-triazol-4-yl)methyl)-2-(1-(4-methoxypyridin-2-yl)ethyl)-3,4-dihydroisoquinolin-1(2H)-one]
GI50 [2, 4]: < 50 nM

CCn1cc(-c2cc(Cn3ccnc3C#N)cc3c2CCN([C@@H](C)c2cc(OC)ccn2)C3=O)c(C(F)(F)F)n1 [Example 179]
GI50 [2, 4]: 9640 nM
